Columns and labels:
Assay type in all cases: in vivo
Parameters in all cases: key: 5=81-100%; 4=61-80%; 3=41-60%; 2=21-40%; 1=1-20%; 0=no damage to the plant; -=not tested
[1] = test system: Amaranthus retoflexus (AMARE); test: Pre-emergence test, herbicidal damage; settings: 1000 g/ha unless otherwise stated, evaluated after 13 days, five-point scale
[2] = test system: Echinochloa crus-galli (ECHCG); test: Post-emergence test, herbicidal damage; settings: sprayed after 8 days cultivation, 1000 g/ha unless otherwise stated, evaluated after 13 days, five-point scale
Procedure: (§1) Seeds of a variety of test species are sown in standard soil in pots Amaranthus palmeri (AMAPA), (Amaranthus retoflexus (AMARE), Echinochloa crus-galli (ECHCG), Zea mays (ZEAMX), Ipomoea 5 hederacea (IPOHE), and Setaria faberi (SETFA). After 8 days cultivation under controlled conditions in a glasshouse (at 24° C./16° C., day/night; 14 hours light; 65% humidity), the plants are sprayed with an aqueous spray solution derived from the formulation of the technical active ingredient in acetone/water (50:50) solution containing 0.5% Tween 20 (polyoxyethelyene sorbitan monolaurate, CAS RN 9005-64-5). Compounds are applied at 1000 g/ha unless otherwise stated. The test plants are then grown in a glasshouse under controlled conditions in a glasshouse (at 24° C./16° C., day/night; 14 hours light; 65% humidity) and watered twice daily. After 13 days the test is evaluated for the percentage damage caused to the plant. The biological activities are shown in the following table on a five-point scale (5=81-100%; 4=61-80%; 3=41-60%; 2=21-40%; 1=1-20%; 0=no damage to the plant; -=not tested).

[3] = test system: Amaranthus palmeri (AMAPA); test: Post-emergence test, herbicidal damage; settings: sprayed after 8 days cultivation, 1000 g/ha unless otherwise stated, evaluated after 13 days, five-point scale
Procedure: as §1

[4] = test system: Ipomoea hederacea (IPOHE); test: Post-emergence test, herbicidal damage; settings: sprayed after 8 days cultivation, 1000 g/ha unless otherwise stated, evaluated after 13 days, five-point scale
Procedure: as §1

[5] = test system: Setaria faberi (SETFA); test: Post-emergence test, herbicidal damage; settings: sprayed after 8 days cultivation, 1000 g/ha unless otherwise stated, evaluated after 13 days, five-point scale
Procedure: as §1

[6] = test system: Zea mays (ZEAMX); test: Post-emergence test, herbicidal damage; settings: sprayed after 8 days cultivation, 1000 g/ha unless otherwise stated, evaluated after 13 days, five-point scale
Procedure: as §1

[7] = test system: Amaranthus retoflexus (AMARE); test: Post-emergence test, herbicidal damage; settings: sprayed after 8 days cultivation, 1000 g/ha unless otherwise stated, evaluated after 13 days, five-point scale
Procedure: as §1

[8] = test system: Zea mays (ZEAMX); test: Pre-emergence test, herbicidal damage; settings: 1000 g/ha unless otherwise stated, evaluated after 13 days, five-point scale
[9] = test system: Ipomoea hederacea (IPOHE); test: Pre-emergence test, herbicidal damage; settings: 1000 g/ha unless otherwise stated, evaluated after 13 days, five-point scale
[10] = test system: Setaria faberi (SETFA); test: Pre-emergence test, herbicidal damage; settings: 1000 g/ha unless otherwise stated, evaluated after 13 days, five-point scale
[11] = test system: Echinochloa crus-galli (ECHCG); test: Pre-emergence test, herbicidal damage; settings: 1000 g/ha unless otherwise stated, evaluated after 13 days, five-point scale
[12] = test system: Amaranthus palmeri (AMAPA); test: Pre-emergence test, herbicidal damage; settings: 1000 g/ha unless otherwise stated, evaluated after 13 days, five-point scale

Cc1cc(-c2ccc(Cl)c(Cl)c2)c(C(=O)O)c(=O)n1-c1ccc(F)cc1F [Compound 14, 4-(3,4-dichlorophenyl)-1-(2,4-difluorophenyl)-6-methyl-2-oxo-pyridine-3-carboxylic acid]
1 (1=1-20%): percentage damage caused to the plant, ECHCG [2] | percentage damage caused to the plant, AMAPA [3] | percentage damage caused to the plant, SEFTA [5] | percentage damage caused to the plant, ZEAMX [6] | percentage damage caused to the plant, AMARE [7]
0: percentage damage caused to the plant, AMARE [1] | percentage damage caused to the plant, IPOHE [4] | percentage damage caused to the plant, ZEAMX [8] | percentage damage caused to the plant, IPOHE [9] | percentage damage caused to the plant, SEFTA [10] | percentage damage caused to the plant, ECHCG [11]

Cc1c(Br)c(-c2ccc(Cl)c(Cl)c2)c(C(=O)O)c(=O)n1C [Compound 5, 5-bromo-4-(3,4-dichlorophenyl)-1,6-dimethyl-2-oxo-pyridine-3-carboxylic acid]
0: percentage damage caused to the plant, AMARE [1] | percentage damage caused to the plant, ECHCG [2] | percentage damage caused to the plant, SEFTA [5] | percentage damage caused to the plant, ZEAMX [8] | percentage damage caused to the plant, IPOHE [9] | percentage damage caused to the plant, AMAPA [12] | percentage damage caused to the plant, SEFTA [10] | percentage damage caused to the plant, ECHCG [11]
1 (1=1-20%): percentage damage caused to the plant, AMAPA [3] | percentage damage caused to the plant, IPOHE [4] | percentage damage caused to the plant, ZEAMX [6] | percentage damage caused to the plant, AMARE [7]

Cc1[nH]c(=O)c(C(=O)O)c(-c2ccc(Cl)c(Cl)c2)c1Br [Compound 1, 5-bromo-4-(3,4-dichlorophenyl)-6-methyl-2-oxo-1H-pyridine-3-carboxylic acid]
1 (1=1-20%): percentage damage caused to the plant, IPOHE [4] | percentage damage caused to the plant, SEFTA [5] | percentage damage caused to the plant, ZEAMX [6] | percentage damage caused to the plant, ECHCG [11]
5 (5=81-100%): percentage damage caused to the plant, AMAPA [3] | percentage damage caused to the plant, AMARE [7]
2 (2=21-40%): percentage damage caused to the plant, AMARE [1]
3 (3=41-60%): percentage damage caused to the plant, AMAPA [12]
0: percentage damage caused to the plant, ECHCG [2] | percentage damage caused to the plant, ZEAMX [8] | percentage damage caused to the plant, IPOHE [9] | percentage damage caused to the plant, SEFTA [10]

Cc1c(Cl)c(-c2ccc(Cl)c(Cl)c2)c(C(=O)O)c(=O)n1-c1cccc(C(F)(F)F)c1F [Compound 23, 5-chloro-4-(3,4-dichlorophenyl)-1-[2-fluoro-3-(trifluoromethyl)phenyl]-6-methyl-2-oxo-pyridine-3-carboxylic acid]
1 (1=1-20%): percentage damage caused to the plant, ECHCG [2] | percentage damage caused to the plant, IPOHE [4] | percentage damage caused to the plant, SEFTA [5] | percentage damage caused to the plant, ZEAMX [6] | percentage damage caused to the plant, SEFTA [10] | percentage damage caused to the plant, ECHCG [11]
0: percentage damage caused to the plant, ZEAMX [8] | percentage damage caused to the plant, IPOHE [9]
4 (4=61-80%): percentage damage caused to the plant, AMARE [1] | percentage damage caused to the plant, AMAPA [3] | percentage damage caused to the plant, AMARE [7] | percentage damage caused to the plant, AMAPA [12]

Cc1cc(-c2ccc(Cl)c(Cl)c2)c(C(=O)O)c(=O)n1-c1ncc(Cl)cc1Cl [Compound 19, 4-(3,4-dichlorophenyl)-1-(3,5-dichloro-2-pyridyl)-6-methyl-2-oxo-pyridine-3-carboxylic acid]
0: percentage damage caused to the plant, AMARE [1] | percentage damage caused to the plant, AMARE [7] | percentage damage caused to the plant, ZEAMX [8] | percentage damage caused to the plant, IPOHE [9] | percentage damage caused to the plant, AMAPA [12] | percentage damage caused to the plant, SEFTA [10] | percentage damage caused to the plant, ECHCG [11]
1 (1=1-20%): percentage damage caused to the plant, ECHCG [2] | percentage damage caused to the plant, AMAPA [3] | percentage damage caused to the plant, IPOHE [4] | percentage damage caused to the plant, SEFTA [5] | percentage damage caused to the plant, ZEAMX [6]

Cc1cc(-c2ccc(Cl)c(Cl)c2)c(C(=O)O)c(=O)n1-c1ccc(F)cc1 [Compound 16, 4-(3,4-dichlorophenyl)-1-(4-fluorophenyl)-6-methyl-2-oxo-pyridine-3-carboxylic acid]
1 (1=1-20%): percentage damage caused to the plant, ECHCG [2] | percentage damage caused to the plant, IPOHE [4] | percentage damage caused to the plant, ZEAMX [6] | percentage damage caused to the plant, AMARE [7]
2 (2=21-40%): percentage damage caused to the plant, AMAPA [3] | percentage damage caused to the plant, SEFTA [5]
0: percentage damage caused to the plant, AMARE [1] | percentage damage caused to the plant, ZEAMX [8] | percentage damage caused to the plant, IPOHE [9] | percentage damage caused to the plant, AMAPA [12] | percentage damage caused to the plant, SEFTA [10] | percentage damage caused to the plant, ECHCG [11]

Cc1cc(-c2ccc(Cl)c(Cl)c2)c(C(=O)O)c(=O)n1Cc1ccc(C(F)(F)F)cc1F [Compound 27, 4-(3,4-dichlorophenyl)-1-[[2-fluoro-4-(trifluoromethyl)phenyl]methyl]-6-methyl-2-oxo-pyridine-3-carboxylic acid]
0: percentage damage caused to the plant, AMARE [1] | percentage damage caused to the plant, ECHCG [2] | percentage damage caused to the plant, SEFTA [5] | percentage damage caused to the plant, ZEAMX [6] | percentage damage caused to the plant, AMARE [7] | percentage damage caused to the plant, ZEAMX [8] | percentage damage caused to the plant, IPOHE [9] | percentage damage caused to the plant, SEFTA [10]
1 (1=1-20%): percentage damage caused to the plant, AMAPA [3] | percentage damage caused to the plant, AMAPA [12]

Cc1c(Br)c(-c2ccc(Cl)c(Cl)c2)c(C(=O)O)c(=O)n1-c1ccc(Cl)cc1F [Compound 21, 5-bromo-1-(4-chloro-2-fluoro-phenyl)-4-(3,4-dichlorophenyl)-6-methyl-2-oxo-pyridine-3-carboxylic acid]
0: percentage damage caused to the plant, ECHCG [2] | percentage damage caused to the plant, ZEAMX [8]
4 (4=61-80%): percentage damage caused to the plant, AMARE [1] | percentage damage caused to the plant, AMAPA [3] | percentage damage caused to the plant, AMAPA [12]
1 (1=1-20%): percentage damage caused to the plant, IPOHE [4] | percentage damage caused to the plant, SEFTA [5] | percentage damage caused to the plant, ZEAMX [6] | percentage damage caused to the plant, SEFTA [10] | percentage damage caused to the plant, ECHCG [11]

Cc1c(Br)c(-c2ccc(Cl)c(Cl)c2)c(C(=O)O)c(=O)n1-c1ccc(F)cc1F [Compound 29, 5-bromo-4-(3,4-dichlorophenyl)-1-(2,4-difluorophenyl)-6-methyl-2-oxo-pyridine-3-carboxylic acid]
1 (1=1-20%): percentage damage caused to the plant, AMARE [1] | percentage damage caused to the plant, ECHCG [2] | percentage damage caused to the plant, IPOHE [4] | percentage damage caused to the plant, SEFTA [5] | percentage damage caused to the plant, AMARE [7] | percentage damage caused to the plant, IPOHE [9] | percentage damage caused to the plant, SEFTA [10] | percentage damage caused to the plant, ECHCG [11]
0: percentage damage caused to the plant, ZEAMX [6] | percentage damage caused to the plant, ZEAMX [8]

From US20250289787A1, “HERBICIDAL 2-OXO-NICOTINIC ACID DERIVATIVES” (SYNGENTA CROP PROTECTION AG, priority 2022, published 2025)
